# Data published in PubChem BioAssay AID328 (DTP/NCI, 2004).
# “And” between values parts separate entries of the source, which are not always exact repeats. Equal entries are not always repeated. Inconclusive results and toxic doses are left out.
# System: BDF1 mice, P388 leukemia ip, median survival T/C
# Assay: NCI In Vivo Anticancer Drug Screen. Data for tumor model P388 Leukemia (intraperitoneal) in B6D2F1 (BDF1) mice
# Details: endpoint: median survival time, higher = longer survival
# Outline: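 Vehicle-dosed animals serve as the reference; survival of compound-dosed, tumour-implanted mice is divided by it.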
# [1] = dose: 50.0 mg/kg/injection, schedule: Q04DX003 (ip), vehicle: saline
# [2] = dose: 100.0 mg/kg/injection, schedule: Q04DX003 (ip), vehicle: saline
# [3] = dose: 200.0 mg/kg/injection, schedule: Q04DX003 (ip), vehicle: saline
# [4] = dose: 400.0 mg/kg/injection, schedule: Q04DX003 (ip), vehicle: saline
# [5] = dose: 100.0 mg/kg/injection, schedule: Q01DX009 (ip), vehicle: Klucel (hydroxypropylcellulose) (HPC)
# [6] = dose: 100.0 mg/kg/injection, schedule: Q04DX003 (ip), vehicle: Klucel (hydroxypropylcellulose) (HPC)
# [7] = dose: 200.0 mg/kg/injection, schedule: Q01DX009 (ip), vehicle: Klucel (hydroxypropylcellulose) (HPC)
# [8] = dose: 200.0 mg/kg/injection, schedule: Q04DX003 (ip), vehicle: Klucel (hydroxypropylcellulose) (HPC)
# [9] = dose: 50.0 mg/kg/injection, schedule: Q01DX009 (ip), vehicle: Klucel (hydroxypropylcellulose) (HPC)
# [10] = dose: 50.0 mg/kg/injection, schedule: Q01DX009 (ip), vehicle: saline with Tween-80
# [11] = dose: 100.0 mg/kg/injection, schedule: Q01DX009 (ip), vehicle: saline with Tween-80
# [12] = dose: 200.0 mg/kg/injection, schedule: Q01DX009 (ip), vehicle: saline with Tween-80
# [13] = dose: 50.0 mg/kg/injection, schedule: Q04DX003 (ip), vehicle: saline with Tween-80
# [14] = dose: 100.0 mg/kg/injection, schedule: Q04DX003 (ip), vehicle: saline with Tween-80
# [15] = dose: 200.0 mg/kg/injection, schedule: Q04DX003 (ip), vehicle: saline with Tween-80
# [16] = dose: 400.0 mg/kg/injection, schedule: Q04DX003 (ip), vehicle: saline with Tween-80
# [17] = dose: 100.0 mg/kg/injection, schedule: Q01DX001 (ip), vehicle: saline with Tween-80
# [18] = dose: 200.0 mg/kg/injection, schedule: Q01DX001 (ip), vehicle: saline with Tween-80
# [19] = dose: 12.5 mg/kg/injection, schedule: Q01DX009 (ip), vehicle: saline with Tween-80
# [20] = dose: 25.0 mg/kg/injection, schedule: Q01DX009 (ip), vehicle: saline with Tween-80
# [21] = dose: 150.0 mg/kg/injection, schedule: Q01DX009 (ip), vehicle: saline with Tween-80
compound,measurement,setting,value
CC(=O)NC1(C(=O)O)CSSC1,T/C,"dose: 12.5 mg/kg/injection, schedule: Q01DX005 (ip), vehicle: saline",107 % of control
same,T/C,"dose: 25.0 mg/kg/injection, schedule: Q01DX005 (ip), vehicle: saline",106 % of control
same,T/C,"dose: 25.0 mg/kg/injection, schedule: Q04DX003 (ip), vehicle: saline",91 % of control
same,T/C,"dose: 50.0 mg/kg/injection, schedule: Q01DX005 (ip), vehicle: saline",104 % of control
same,T/C,[1],97 % of control
same,T/C,"dose: 100.0 mg/kg/injection, schedule: Q01DX005 (ip), vehicle: saline",100 % of control
same,T/C,[2],118 % of control
same,T/C,"dose: 200.0 mg/kg/injection, schedule: Q01DX005 (ip), vehicle: saline",104 % of control
same,T/C,[3],114 % of control
same,T/C,"dose: 400.0 mg/kg/injection, schedule: Q01DX005 (ip), vehicle: saline",97 % of control
same,T/C,[4],123 % of control
O=c1c2ccccc2cc2ccccn12,T/C,[5],109 % of control
same,T/C,[6],91 % of control
same,T/C,[7],109 % of control
same,T/C,[8],95 % of control
COc1ccc(Br)c(C=O)c1OS(=O)(=O)c1ccc(C)cc1,T/C,"dose: 25.0 mg/kg/injection, schedule: Q01DX009 (ip), vehicle: other",100 % of control
same,T/C,"dose: 50.0 mg/kg/injection, schedule: Q01DX009 (ip), vehicle: other",110 % of control
same,T/C,"dose: 100.0 mg/kg/injection, schedule: Q01DX009 (ip), vehicle: other",94 % of control
same,T/C,"dose: 200.0 mg/kg/injection, schedule: Q01DX009 (ip), vehicle: other",99 % of control
same,T/C,"dose: 400.0 mg/kg/injection, schedule: Q01DX009 (ip), vehicle: other",95 % of control
O=NN(CCCl)C(=O)Nc1ccc2c3c(cccc13)-c1ccccc1-2,T/C,[9],156 % of control and 157 % of control
same,T/C,[5],156 % of control and 157 % of control
same,T/C,[7],161 % of control and 170 % of control
same,T/C,"dose: 400.0 mg/kg/injection, schedule: Q01DX009 (ip), vehicle: Klucel (hydroxypropylcellulose) (HPC)",93 % of control
CN(C)c1ccc(C(O)(Cc2cccnc2)c2ccc(N(C)C)cc2)cc1,T/C,[10],113 % of control
same,T/C,[11],100 % of control
same,T/C,[12],96 % of control
c1ccc(-c2ccc(-c3cn4ccsc4n3)cc2)cc1,T/C,"dose: 100.0 mg/kg/injection, schedule: Q01DX001 (ip), vehicle: Klucel (hydroxypropylcellulose) (HPC)",101 % of control
same,T/C,"dose: 200.0 mg/kg/injection, schedule: Q01DX001 (ip), vehicle: Klucel (hydroxypropylcellulose) (HPC)",99 % of control
same,T/C,"dose: 400.0 mg/kg/injection, schedule: Q01DX001 (ip), vehicle: Klucel (hydroxypropylcellulose) (HPC)",100 % of control
CC(C)(C)c1ccc(C(c2ccc(C(C)(C)C)cc2)C(Cl)Cl)cc1,T/C,[6],91 % of control
same,T/C,[8],91 % of control
same,T/C,"dose: 400.0 mg/kg/injection, schedule: Q04DX003 (ip), vehicle: Klucel (hydroxypropylcellulose) (HPC)",95 % of control
C#CC(C)(C)OCC(CCl)OC(N)=O (stereo unspecified),T/C,[13],105 % of control
same,T/C,[14],110 % of control
same,T/C,[15],100 % of control
same,T/C,[16],115 % of control
C[N+](C)(C)CCCC[N+](C)(C)C,T/C,"dose: 25.0 mg/kg/injection, schedule: Q01DX009 (ip), vehicle: saline",93 % of control
same,T/C,"dose: 50.0 mg/kg/injection, schedule: Q01DX009 (ip), vehicle: saline",91 % of control
same,T/C,[1],103 % of control
same,T/C,"dose: 100.0 mg/kg/injection, schedule: Q01DX009 (ip), vehicle: saline",87 % of control
same,T/C,[2],103 % of control
same,T/C,"dose: 200.0 mg/kg/injection, schedule: Q01DX009 (ip), vehicle: saline",89 % of control and 93 % of control
same,T/C,[3],100 % of control
same,T/C,"dose: 300.0 mg/kg/injection, schedule: Q01DX009 (ip), vehicle: saline",93 % of control and 96 % of control
O=C1C(C2CCCCC2)CCCC1C1CCCCC1 (stereo unspecified),T/C,[17],107 % of control
same,T/C,[18],98 % of control
CC(CCC/C=C/CCCN(C)C(=N)N)CC(C)C1OC(=O)C(C)C(O)/C=C/C(C)C(O)C(C)C(O)C(C)C(O)CCCC(O)CC2(O)OC(CC(OC(=O)CC(=O)O)CC(O)CC(O)C(C)C(O)/C=C/C=C/C1C)CC(O)C2O (stereo unspecified),T/C,"dose: 1.8 mg/kg/injection, schedule: Q01DX009 (ip), vehicle: saline with Tween-80",124 % of control
same,T/C,"dose: 1.82 mg/kg/injection, schedule: Q04DX003 (ip), vehicle: saline",90 % of control
same,T/C,"dose: 2.5 mg/kg/injection, schedule: Q01DX001 (ip), vehicle: saline",109 % of control
same,T/C,"dose: 3.65 mg/kg/injection, schedule: Q01DX009 (ip), vehicle: saline with Tween-80",116 % of control
same,T/C,"dose: 3.65 mg/kg/injection, schedule: Q04DX003 (ip), vehicle: saline",109 % of control
same,T/C,"dose: 5.0 mg/kg/injection, schedule: Q01DX001 (ip), vehicle: saline",100 % of control
same,T/C,"dose: 7.3 mg/kg/injection, schedule: Q01DX009 (ip), vehicle: saline with Tween-80",104 % of control
same,T/C,"dose: 7.3 mg/kg/injection, schedule: Q04DX003 (ip), vehicle: saline",104 % of control
same,T/C,"dose: 10.0 mg/kg/injection, schedule: Q01DX001 (ip), vehicle: saline",109 % of control
same,T/C,"dose: 10.0 mg/kg/injection, schedule: Q04DX003 (ip), vehicle: saline",100 % of control
C=C1CC2(CC(C)(C)CC(C)(C)C2)OC1=O,T/C,[14],97 % of control
same,T/C,[15],112 % of control
same,T/C,[16],106 % of control
Cc1nc(Cl)c(C(N)=O)nc1C,T/C,[19],91 % of control
same,T/C,[20],88 % of control and 94 % of control
same,T/C,[10],97 % of control
same,T/C,[13],113 % of control
same,T/C,[11],90 % of control and 106 % of control
same,T/C,[14],96 % of control
same,T/C,[21],97 % of control
same,T/C,[15],92 % of control
same,T/C,[16],99 % of control
NC(=O)c1ccccc1NC(=O)c1ccccc1C(=O)O,T/C,[10],99 % of control
same,T/C,[11],151 % of control
same,T/C,[12],153 % of control
CC(=O)Nc1ccc(OCCOC(=O)Nc2c(Cl)cccc2Cl)cc1,T/C,"dose: 25.0 mg/kg/injection, schedule: Q01DX009 (ip), vehicle: Klucel (hydroxypropylcellulose) (HPC)",111 % of control
same,T/C,[9],100 % of control
same,T/C,[5],100 % of control
CC1=Nc2ccccc2N=C(C)C1,T/C,[20],100 % of control
same,T/C,"dose: 50.0 mg/kg/injection, schedule: Q01DX001 (ip), vehicle: saline with Tween-80",100 % of control
same,T/C,[10],90 % of control
same,T/C,[17],104 % of control
same,T/C,[11],109 % of control
same,T/C,[14],100 % of control
same,T/C,[21],100 % of control
same,T/C,[18],100 % of control
same,T/C,[15],100 % of control
NC(=S)N/N=C/c1ccc(OC(=O)Cc2ccccc2)cn1,T/C,[19],150 % of control
CC[C@@H](C(=O)[C@@H](C)[C@@H](O)[C@H](C)CCc1ccc(C)c(O)c1C(=O)O)[C@H]1O[C@](CC)([C@H]2CC[C@](O)(CC)[C@H](C)O2)C[C@@H]1C,T/C,"dose: 3.12 mg/kg/injection, schedule: Q01DX009 (ip), vehicle: Klucel (hydroxypropylcellulose) (HPC)",108 % of control
same,T/C,"dose: 6.25 mg/kg/injection, schedule: Q01DX009 (ip), vehicle: Klucel (hydroxypropylcellulose) (HPC)",110 % of control
same,T/C,"dose: 12.5 mg/kg/injection, schedule: Q01DX009 (ip), vehicle: Klucel (hydroxypropylcellulose) (HPC)",118 % of control and 119 % of control
CC(=O)NNC(=O)c1ccncc1,T/C,[2],100 % of control
same,T/C,[3],118 % of control
same,T/C,[4],100 % of control
